In patent US20030175678A1, “Methods for identifying genes regulating desired cell phenotypes” (priority 2001, published 2003):

Columns and labels:
[1] = tested on: C. acinaciformis suspension culture; experiment: Effect of methyl jasmonate on catechin accumulation in Crassula acinaciformis suspension culture; assay type: cell-based; details: M33 medium, added on day 7, by day 16
Procedure: Catechin derivative profiles in the C. acinaciformis suspension culture were obtained from incubations in 250 mL conical flasks containing either 100 mL of M62 growth medium or 100 mL of a secondary metabolite production medium M33 (Murashige and Skoog (1962); modified to contain 5% sucrose and no hormones) inoculated with 40 mL of 21 day old suspension culture. The cultures were incubated under low light conditions (approximately 30 lux) at 25° C. […] 10 mL culture samples were taken at regular intervals for 16 days following the day of subculture to M33 medium. All culture samples were centrifuged for five minutes at 4000 rpm, and the cell residue was freeze-dried. Extraction, sample preparation, and HPLC analysis were performed as described in Example 1.

[2] = tested on: Ajuga reptans suspension culture; experiment: Differential induction of diterpenes (Compound 6) in Ajuga reptans suspension culture; assay type: cell-based; details: B49 production medium, treated day 7, harvested after a further seven days, n = 3
Procedure: Differential induction of diterpenoids in the Ajuga reptans suspension culture was performed by inoculating 500 mL conical flasks containing 190 mL of a secondary metabolite production medium B49 (Gamborg's B5, 5% sucrose, no hormones), with 70 mL of 14 day old suspension culture. The culture was incubated at 25° C. in continuous low light and shaken at 140 rpm. Cultures were grown for seven days (25° C. in continuous low light and shaken at 140 rpm) and then dispensed as 5 mL aliquots to 6-well plates (Bibby Sterilin Ltd, Stone, UK). Cultures were then treated using one of the following protocols:
Triplicate samples were set up for each treatment. Cultures were incubated for a further seven days before harvest for extraction and analysis of diterpenoids.
Cultures were harvested by freezing entire 6-well plates at −20° C. and then freeze-drying cultures in situ. […] After standing for one hour 500 μL of filtered methanol extract was removed and immediately analyzed.
HPLC analysis was carried out using an Xterra RP 18 column (dimensions 3×150 mm with 5 μm packing) using an isocratic solvent system of water (two volumes): acetonitrile (three volumes) to which has been added 0.1% acetic acid. […] The eluate was monitored by UV absorption. The principal diterpene metabolite (Compound 6) has UV absorption maxima at 230, 290 and 340 nm and can be sensitively monitored at any of these wavelengths. […]

SMILES: CC/C=C\CC1C(=O)CCC1CC(=O)OC (centres unmarked) [methyl jasmonate]
- catechin level [1]: approximate doubling of catechin level
- Compound 6 (mg/L culture) Mean [2]: 9.52 mg/L culture
